These compounds were tested against Programmed cell death protein 1/Programmed cell death 1 ligand 1 (Homo sapiens, UniProt Q15116+Q9NZQ7) (assay: In Vitro Activity Assay: In vitro activity evaluation: Cisbio PD-1/PD-L1 binding assay kit was applied for the detection method of in vitro enzymology level.Screening Principles and Methods of PD-1/PD-L1 Small Molecule Inhibitors1) Principle: PD-1 protein is with HIS tag, and PD-1 ligand PD-L1 is with hFc tag. Eu labeled anti-hFc antibody and XL665 labeled anti-HIS antibody are combined with the above two label proteins respectively. After laser excitation, energy can be transferred from donor Eu to receptor XL665, allowing XL665 to glow. […] Reagents should be dispensed in the following order. For 384-well white ELISA plate, 2 μl of diluent or target compound diluted with diluent was added to each well, and then 4 μl of PD-1 protein and 4 μl of PD-L1 protein were added per well, incubated for 15 min at room temperature; and 10 μl of a mixture of anti-Tag1-Eu3+ and anti-Tag2-XL665 was added per well and incubated for 1 h to 4 h at room temperature and the fluorescence signals at 665 nm and 620 nm were measured with an Envison instrument. HTRF rate=(665 nm/620 nm)*104. 8-10 concentrations were detected for each compound and IC50 was calculated by Graphpad software.).
Programmed cell death protein 1/Programmed cell death 1 ligand 1, sequence (Q15116 whole entry): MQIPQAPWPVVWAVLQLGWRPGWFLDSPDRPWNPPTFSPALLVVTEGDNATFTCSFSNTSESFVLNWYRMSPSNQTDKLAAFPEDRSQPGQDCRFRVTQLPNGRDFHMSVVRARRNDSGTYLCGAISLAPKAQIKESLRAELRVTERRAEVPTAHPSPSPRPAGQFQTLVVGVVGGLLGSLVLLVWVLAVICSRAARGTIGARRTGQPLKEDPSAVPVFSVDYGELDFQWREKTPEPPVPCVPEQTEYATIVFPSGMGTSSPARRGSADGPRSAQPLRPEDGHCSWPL
Programmed cell death protein 1/Programmed cell death 1 ligand 1, sequence (Q9NZQ7 whole entry): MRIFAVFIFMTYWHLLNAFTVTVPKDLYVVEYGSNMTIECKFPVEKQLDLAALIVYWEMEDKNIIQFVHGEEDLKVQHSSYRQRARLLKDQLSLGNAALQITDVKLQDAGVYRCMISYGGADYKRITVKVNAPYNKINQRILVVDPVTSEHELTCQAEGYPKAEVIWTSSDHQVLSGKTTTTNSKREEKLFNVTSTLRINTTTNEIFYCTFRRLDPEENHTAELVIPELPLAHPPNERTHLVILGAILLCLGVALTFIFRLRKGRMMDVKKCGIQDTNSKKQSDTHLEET
Assay type: protein-complex assay

Going from `O=C(O)[C@H](CO)NCc1cc(Cl)c(OCc2cccc(-c3ccccc3)c2Cl)cc1OCc1cccnc1` to `O=C(O)[C@H](CO)NCc1cc(Cl)c(OCc2cccc(-c3ccccc3)c2F)cc1OCc1cccnc1`, the IC50 rises from 40.1 nM to 134 nM (3.3-fold). The first is the more potent here.

Going from `O=C(O)[C@H](CO)NCc1cc(Cl)c(OCc2cccc(-c3ccccc3)c2)cc1OCc1cccnc1` to `NC(=O)C[C@H](NCc1cc(Cl)c(OCc2cccc(-c3ccccc3)c2Br)cc1OCc1cccnc1)C(=O)O`, the IC50 rises from 318 nM to 835 nM (2.6-fold). The first is the more potent here.

First: C/C(=C\C(=O)O)NCc1cc(Cl)c(OCc2cccc(-c3ccccc3)c2Br)cc1OCc1cccnc1
Second: C[C@H](NCc1cc(Cl)c(OCc2cccc(-c3ccccc3)c2Br)cc1OCc1cccnc1)C(=O)O
The IC50 of the first is 2.3-fold lower: 2.33 nM for the first, 5.29 nM for the second.

Compared with `O=S(=O)(O)CCNCc1cc(Cl)c(OCc2cccc(-c3ccccc3)c2Br)cc1OCc1cccnc1`, `OCCNCc1cc(Cl)c(OCc2cccc(-c3ccccc3)c2Br)cc1OCc1cccnc1` is 300-fold lower in IC50: 16200 nM for the first, 53.8 nM for the second.

Compound `OCCN(CCO)Cc1cc(Cl)c(OCc2cccc(-c3ccccc3)c2Br)cc1OCc1cccnc1` has an IC50 of 51 nM.
